Assay results: patent US10660903B2, “Orodispersible dosage unit containing an estetrol component” (ESTETRA SPRL, priority 2015, dated 2020)

Legend:
[1] = Randomized, open-label, two-period, cross-over pharmacokinetic study, sublingual versus oral estetrol; format: in vivo, human; settings: 10 mg estetrol; sublingual vs oral; healthy female volunteers
Experimental: A randomized, open-label, two-period, cross-over, pharmacokinetic study is conducted to compare sublingual bioavailability of 10 mg estetrol administered in one 100 mg tablet with oral availability of estetrol contained in a 83 mg tablet containing 10 mg estetrol. These tablets are administered sublingually and orally to healthy female volunteers under fasting conditions.
Ten healthy female subjects are selected on the basis of the following criteria: age of 45-65 years (inclusive), nonsmokers or past smokers (at least 6 months before dosing), body-mass index (BMI)=18.5 to 30 kg/m^2 (inclusive at the time of the screening).
At the start of the first and the second period of the study, between 07:00 am and 07:28 am, 5 subjects receive a single dose of the sublingual formulation of estetrol by administering one estetrol tablet (tablet weight 100 mg; 10 mg estetrol) and 5 subjects receive a single oral dose of the oral estetrol formulation by administering one estetrol tablet (tablet weight 83 mg; 10 mg estetrol), ingested together with 200 ml water. […]
The estetrol concentration in the collected blood samples is determined by means of HPLC/MS/MS. The concentrations of glucuronided estetrol (D-ring) in the urine samples is also determined with the help of HPLC/MS/MS.

[2] = Particle size distribution by laser diffraction (Malvern Mastersizer Microplus); format: physicochemical; settings: milled estetrol used in the tablets
Experimental: The particles size distribution of the estetrol particles, and of other particulate materials used in the present process, may suitably be determined by means of laser diffraction. The particle size distribution of the estetrol particles within the solid dosage unit can suitably be determined using spectroscopic techniques, e.g. Raman mapping.
Particle size distribution of estetrol monohydrate is performed using a MALVERN MASTERS IZER MICROPLUS laser particle size analyzer.
• Weigh 1 g of estetrol monohydrate and 1 g of sorbitan trioleate into a flask. • Add 1 litre of n-hexane and mix for at least 1 hour at room temperature • Filter through a 0.45 μm filter.
• Put 100 mg of sample in a 25 mL beaker. • Add some drops of dispersion medium. • Mix carefully with a glass rod to suspend well the powder. • Add 10 mL of dispersion medium. • Perform the analysis with the sample dispersion unit's speed at 3000-3500 rpm.
Particle size measurements are performed three times using the same dispersion. The final result is obtained by averaging the results of the three determinations.

[3] = humans; cited from earlier work
estrogen receptors = settings: in vitro; cited from earlier work
[4] = molecular target: T1, sex hormone binding globulin (SHBG) (Homo sapiens, UniProt P04278); settings: cited from earlier work
T1 sequence (P04278 30-402): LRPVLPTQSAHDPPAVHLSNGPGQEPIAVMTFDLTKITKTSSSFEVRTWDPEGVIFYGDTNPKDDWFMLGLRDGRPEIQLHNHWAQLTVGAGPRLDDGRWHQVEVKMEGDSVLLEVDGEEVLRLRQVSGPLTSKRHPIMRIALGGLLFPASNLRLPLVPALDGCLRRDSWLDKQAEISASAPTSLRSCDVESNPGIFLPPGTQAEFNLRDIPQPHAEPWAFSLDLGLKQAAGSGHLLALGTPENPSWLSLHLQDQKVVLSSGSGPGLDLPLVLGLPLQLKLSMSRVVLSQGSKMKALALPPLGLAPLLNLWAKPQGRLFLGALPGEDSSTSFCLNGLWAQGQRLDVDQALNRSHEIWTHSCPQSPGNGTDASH

production of SHBG = settings: in vitro; cited from earlier work
[5] = test system: vagina, uterus, body weight, bone mass, bone strength, hot flushes, ovulation; settings: rat models; dose-dependent; cited from earlier work
DMBA mammary tumour = settings: extent and dose level similar to tamoxifen and to ovariectomy; cited from earlier work
[6] = test system: human breast cancer cells; settings: in the presence of 17β-estradiol; cited from earlier work

impact on a liver function parameter, sublingual versus oral estetrol [1]: less impact
D (v;0.5) (volume median diameter) [2]: ^1 D (v;0.5) = 15 μm
Compound: C[C@]12CC[C@@H]3c4ccc(O)cc4CC[C@H]3[C@@H]1[C@@H](O)[C@@H](O)[C@@H]2O [estetrol, 1,3,5 (10)-estratrien-3,15α,16α,17β-tetrol]
oral bioavailability [3]: high and dose-proportional
terminal elimination half-life [3]: about 28 hours
binding to the estrogen receptors, selectivity (estrogen receptors): binds highly selective to the estrogen receptors with preference for the ERa form of the receptor
binding to SHBG [4]: does not bind
stimulation of the production of SHBG (production of SHBG): does not stimulate
estrogenic effects on vagina, uterus, body weight, bone mass, bone strength, hot flushes and ovulation [5]: exhibited estrogenic effects
tumour development (DMBA mammary tumour): prevented tumour development
anti-estrogenic effect [6]: anti-estrogenic effect
